Measurements reported in BindingDB's records for doi:10.1016/s0960-894x(99)00243-7 (Eisai Research Institute, 1999).
Values joined by “and” are separate entries in the source; they are usually repeats but may differ in a detail not shown here. Equal entries are not always repeated.

Key:
[1] = Multidrug-resistant reversal activity using P388/VMDRC.04 cells (a subline of P388 murine leukemia cells expressing human recombinant human P-glycoprotein) in the presence of 10 nM vincristine
[2] = Evaluated for cytotoxicity using P388/VMDRC.04 cells (a subline of P388 murine leukemia cells expressing human recombinant human P-glycoprotein) in the absence of 10 nM vincristine
[3] = as above; remark: listed apart in the source

SMILES | IC50 [1] | IC50 [2] | IC50 [3]
CCCCCCC[C@H]1OC(=O)C[C@@H](O)[C@H](Cc2ccccc2)N(C)C(=O)[C@H](C(C)C)OC(=O)[C@H]1C [HAPALOSIN] | 4.8 µM | 14.8 µM | 
CCCC[C@H]1OC(=O)C[C@H](O)[C@H](Cc2ccccc2)N(C)C(=O)COC(=O)[C@H]1C | 18.1 µM | > 80 µM | 
C[C@@H]1C(=O)OCC(=O)N(C)[C@@H](Cc2ccccc2)[C@@H](O)CC(=O)O[C@@H]1C | > 100 µM | > 100 µM | 
CCCCCCC[C@@H](O)[C@H](C)C(=O)O[C@H](C(=O)OC)C(C)C | 16 µM | > 83 µM | 
CCCCCCC[C@H]1OC(=O)C[C@@H](OCOC)[C@H](Cc2ccccc2)N(C)C(=O)[C@H](C(C)C)OC(=O)[C@H]1C |  |  | 6.1 µM
CCCCCCC[C@H]1OC(=O)CC[C@H](Cc2ccccc2)N(C)C(=O)[C@H](C(C)C)OC(=O)[C@H]1C |  | 33.7 µM | 6 µM
CCCCCCC[C@H]1OC(=O)C[C@H](OCOC)[C@H](Cc2ccccc2)N(C)C(=O)[C@H](C(C)C)OC(=O)[C@H]1C | 5.5 µM and 5.4 µM | 41.5 µM | 
CCCCCCC[C@H]1OC(=O)C[C@H](O)[C@H](Cc2ccccc2)N(C)C(=O)[C@H](C(C)C)OC(=O)[C@H]1C | 5.7 µM | 42.2 µM | 
CCCCCCC[C@@H]1CC(=O)O[C@@H](C(C)C)C(=O)N(C)[C@@H](Cc2ccccc2)[C@H](OCOC)CC(=O)O1 |  | 34.4 µM | 6 µM
COCO[C@H](CC(=O)OC)[C@H](Cc1ccccc1)N(C)C(=O)OCc1ccccc1 | 14.9 µM | > 86 µM | 
CCCCCCC[C@H]1OC(=O)C[C@@H](OCOC)[C@H](Cc2ccccc2)N(C)C(=O)COC(=O)[C@H]1C |  | 15.1 µM | 2.3 µM
CCCC[C@H]1OC(=O)C[C@H](OCOC)[C@H](Cc2ccccc2)N(C)C(=O)COC(=O)[C@H]1C |  |  | 11.7 µM
COCO[C@@H]1CC(=O)OC[C@H](C)C(=O)O[C@@H](C(C)C)C(=O)N(C)[C@H]1Cc1ccccc1 |  | > 100 µM | 10.4 µM
COCO[C@H]1CC(=O)O[C@H](C)[C@H](C)C(=O)OCC(=O)N(C)[C@H]1Cc1ccccc1 | 42.7 µM | > 100 µM | 
CCCCCCC[C@H]1OC(=O)C[C@@H](O)[C@H](Cc2ccccc2)N(C)C(=O)COC(=O)[C@H]1C |  | 22.5 µM | 5.8 µM
CCCCCCC[C@H]1OC(=O)C[C@@H](O)[C@H](Cc2ccccc2)N(C)C(=O)[C@H](C)OC(=O)[C@H]1C | 6.2 µM | 27.1 µM | 
COC(=O)C[C@@H](O)[C@H](Cc1ccccc1)N(C)C(=O)OCc1ccccc1 |  | > 89 µM | 17.1 µM
CCCCCCC[C@H]1OC(=O)C[C@H](O)[C@H](Cc2ccccc2)N(C)C(=O)C(C)(C)OC(=O)[C@H]1C | 4.3 µM | 28.4 µM | 
CCCCCCC[C@H]1OC(=O)C[C@H](OCOC)[C@H](Cc2ccccc2)N(C)C(=O)C(C)(C)OC(=O)[C@H]1C | 5.6 µM | 20 µM | 
CC(C)[C@@H]1OC(=O)[C@@H](C)[C@@H](C)OC(=O)C[C@@H](O)[C@H](Cc2ccccc2)N(C)C1=O |  | > 100 µM | 15 µM
CC(C)[C@@H]1OC(=O)[C@@H](C)COC(=O)C[C@@H](O)[C@H](Cc2ccccc2)N(C)C1=O |  |  | 21.9 µM
CCCCCCC[C@H]1OC(=O)C[C@@H](OCOC)[C@H](Cc2ccccc2)N(C)C(=O)[C@H](C)OC(=O)[C@H]1C | 5.9 µM | 19.3 µM | 
CCCCCCC[C@@H]1CC(=O)O[C@@H](C(C)C)C(=O)N(C)[C@@H](Cc2ccccc2)[C@H](O)CC(=O)O1 |  | 24 µM | 6.2 µM
COCO[C@@H]1CC(=O)O[C@H](C)[C@H](C)C(=O)O[C@@H](C(C)C)C(=O)N(C)[C@H]1Cc1ccccc1 |  | > 75 µM | 7.5 µM
